Assay results published in patent US4092420A, “Novel soft N-chloroamino alcohol derivatives exhibiting antibacterial activity” (INTERx Research Corporation, priority 1977, dated 1978).
Converted amounts (≈) assume the structure as drawn.

Key:
[1] = test system: P. aeruginosa; assay: Minimal inhibitory concentration (MIC), Example V; assay type: cell-based; conditions: Pseudomonas aeruginosa
Experimental: (§1) THE ANTIBACTERIAL SCREEN - EXAMPLE V
(§2) THE ANTIBACTERIAL SCREEN - EXAMPLES W - Z (Autotiter IV)
(§3) (a) Compounds. All compounds to be screened are weighed (approx. 10 mg) on the day preceding the test date. Each compound is solubilized on the day of assay in appropriate solvent and diluted automatically in the Autotiter IV with distilled water (buffer can be employed here also).
(§4) Bacteria: Staphylococcus aureas Smith (or 209), Escherichia coli AB 1932-1, 1100/B22 and Vogel, Streptococcus pyogenes C203 Salmonella typhimurium 14028, Bacillus subtilis 6051-1, Klebsiella pneumoniae 10031, Pseudomonas aeruginosa 9027, Bordetella bronchiseptica 4617 and Staphylococcus epidermidis 12228.
(§5) (c) Inocula. Prior to utilization in the Autotiter IV, all bacteria are cultured for 18-20 hr. (37° C) in tryptose phosphate broth (TP), except, S. pyogenes C203, which is cultured in Brain Heart Infusion broth plus 10% normal horse serum. Immediately prior to testing, each culture is adjusted to an optical density of 0.10 (650 nm), employing a Bausch & Lomb Spectronic 20, and diluted subsequently into double strength medium to approximately 2 × 10^5 viable organisms per ml.
(§6) 1. An automated injector system dispenses 0.05 ml of diluent (sterile H2 O or buffer) to all cups of the autotiter trays from rows 2 through 7.
(§7) 2. The loops (for sequential dilutions of the compounds are moistened by immersion into 70% ethyl alcohol. After removal of excess alcohol by blotting, the loops are moved to the first row of cups in the autotray containing 0.10 ml of the compound to be diluted and tested (usually, this initial concentration is 500 to 1000 mcg/ml, but can be varied upward or downward). The loops are lowered and sequentially transfer the diluted solutions of the compound through row 7.
(§8) Immediately after each dilution is made, each cup is automatically inoculated with 0.05 ml of the appropriate test organism. This inoculation derives from a second injector system containing the organism in double-strength medium. The total operation consists of the automatic dilution of a single compound in each of 8 rows of the Autotiter try.
(§9) After these operations, we reverse the tray and a second compound is diluted over the other one-half of the tray and inoculated, subsequently, with 8 organisms. Thus, for each Autotiter Tray, two compounds are screened against 8 different organisms at dilutions ranging from 1:2 to 1:128.
(§10) (e) Incubation. The inoculated Autotiter trays are incubated at 37° C for 18 - 20 hr. At the end of this period, each tray is examined for the presence or absence of growth (turbidity). The lowest concentration of the compound inhibiting growth is recorded as the minimal inhibitory concentration (MIC).

[2] = test system: S. aureus; assay: Minimal inhibitory concentration (MIC), Example V; assay type: cell-based; conditions: Staphylococcus aureus
Experimental: as §1, §2, §3, §4, §5, §6, §7, §8, §9, §10

[3] = test system: S. pyogenes; assay: Minimal inhibitory concentration (MIC), Example V; assay type: cell-based; conditions: Streptococcus pyogenes
[4] = test system: A. niger; assay: Minimal inhibitory concentration (MIC), Example V; assay type: cell-based; conditions: Aspergillus niger
Text: (§11) MINIMAL INHIBITORY CONCENTRATION OF 2-AMINO-2-METHYL-1-PROPYL
(§12) ^a Minimal inhibitory concentration expressed in parts per million
(§13) sequence inhibited the test organism at the higher concentrations.
as §1

[5] = test system: E. coli; assay: Minimal inhibitory concentration (MIC), Example V; assay type: cell-based; conditions: Escherichia coli
Text: as §11, §12, §13, §1

[6] = test system: T. mentagrophytes; assay: Minimal inhibitory concentration (MIC), Example V; assay type: cell-based; conditions: Trichophyton mentagrophytes
Text: as §11, §12, §13, §1

[7] = test system: K. pneumoniae; assay: Minimal inhibitory concentration (MIC), Example V; assay type: cell-based; conditions: Klebsiella pneumoniae
Experimental: as §11, §12, §13, §1
Klebsiella pneumoniae ATCC# 10031
as §2, §3, §4, §5, §6, §7, §8, §9, §10

[8] = test system: C. albicans; assay: Minimal inhibitory concentration (MIC), Example V; assay type: cell-based; conditions: Candida albicans
Text: MINIMAL INHIBITORY CONCENTRATION OF 2-AMINO-2-METHYL-1-PROPYL […]
as §1

[9] = Solubility in 30% methanol: 0.1 M sodium dihydrogen phosphate, pH 7.0; assay type: physicochemical; conditions: 0.1 m nah2po4, pH 7, organic solvent or mixture, Concentration (footnote: Solubility in 30% methanol: 0.1 M sodium dihydrogen phosphate, pH 7.0)
[10] = test system: S. epidermidis; assay: Contact germicidal efficiency (sterilization time); assay type: cell-based, Staphylococcus epidermidis
Experimental: (§14) CONTACT GERMICIDAL EFFICIENCY OF N-CHLORAMINES AS A FUNCTION
(§15) ^a Time intervals screened 0.5, 1, 2, 3, 4 and 5 minutes.
(§16) ^a Time intervals screened 0.5, 1, 2, 3, 4, 5, 6, 7, 8, 9 and 10
(§17) ^a Time intervals screened 0.5, 1, 2, 3, 4, and 5 minutes.
(§18) ^b Time intervals screened 0.5, 1, 2, 3, 4, 5, 6, 7, 8, 9 and 10
(§19) Immediately preceding the screen, the compound is weighed and diluted with a buffer or other solvent to give the final concentration desired. The buffer or solvent chosen depends on the conditions of the screen and could be one of the following: 0.1 M NaOAc, pH 4.6; 0.1 M NaH2 PO4, pH 7.0; 0.1 M Na2 B4 O7, pH 8.8; 35% methanol in one of the aforementioned buffers; 10% Triton × 100 in buffer, etc.
(§20) The positive chlorine concentration of the test solution is then determined iodometrically.
(§21) Media used for the Screen are Nutrient Broth, BBL# 11479 and Nutrient Agar, BBL# 11472 prepared according to label directions. The broth is dispensed in 75 ml amounts of flasks for overnight cultures and in 5 ml amounts to culture tubes for subculturing during the Screen. Agar plates are prepared as usual.
(§22) Overnight cultures are prepared by inoculating from stock cultures into the 75 ml flasks of nutrient broth and incubating for 15 hours at 37° C.
(§23) The iodometrically characterized test solution is dispensed in 5 ml amounts to seven small stoppered flasks. The organisms are screened one at a time as follows:
(§24) A 0.2 ml portion of the overnight culture is inoculated into 5 ml of 0.9% NaCl for use in controls. A 0.2 ml portion of the overnight culture is inoculated into a flask containing 5 ml of the test solution, an automatic timer is simultaneously triggered and the solution mixed. At time intervals of 30 seconds, 1, 2, 3, 4, 5, 6, 7, 8, 9, and 10 minutes a loopful of the inoculated solution is subcultured into 5 ml of sterile nutrient broth and mixed by a Vortex Genie Mixer, the high dilution serving to stop the action of the compound. At the end of the ten minute screen, the entire procedure is repeated for each of the remaining six organisms. All of the subculture tubes are incubated at 37° C and checked for signs of growth by turbidity at 24 hr., 48 hr., 3, 5, and 7 days. The earliest subculture time at which no growth is present in the subculture tube is considered the endpoint and is recorded as that time, e.g., 7 minutes.
(§25) The test solution is prepared and characterized as above but is made up at twice the concentration desired. The solution is diluted 1:1 with Rehydrated Tissue Culture Dessicated Horse Serum, Difco #5357-72 and dispensed in a 5 ml amount to a small flask. The mixture is incubated at Room Temperature for 30 minutes to allow denaturation of the compound by the serum and then screened as above.
(§26) The 5 ml mixture of serum and test solution are prepared in sequence to allow as close to 30 minutes as possible before the beginning of the screen of each organism.
as §4

[11] = test system: K. pneumoniae; assay: Contact germicidal efficiency (sterilization time); assay type: cell-based, Klebsiella pneumoniae
Experimental: as §14, §15, §16, §17, §18, §19, §20, §21, §22, §23, §24, §25, §26, §4

[12] = test system: P. aeruginosa; assay: Contact germicidal efficiency (sterilization time); assay type: cell-based, Pseudomonas aeruginosa
Experimental: as §14, §15, §16, §17, §18, §19, §20, §21, §22, §23, §24, §25, §26, §4

[13] = test system: B. bronchiseptica; assay: Contact germicidal efficiency (sterilization time); assay type: cell-based, Bordetella bronchiseptica
Experimental: as §14, §15, §16, §17, §18, §19, §20, §21, §22, §23, §24, §25, §26, §4

[14] = Example X, pH 4.6, no horse serum, IV c 404 ppm (69 PPMCl+), IV g 489 ppm (143 PPMCl+)
[15] = Example X, pH 7.0, no horse serum, IV c 1886 ppm (323 PPMCl+), IV g 409 ppm (120 PPMCl+)
[16] = Example X, pH 9.3, no horse serum, IV c 1704 ppm (292 PPMCl+), IV g 319 ppm (94 PPMCl+)
[17] = Example Z, pH 4.6, absence of horse serum, IV j 79 ppm (21 PPMCl+), IV k 5800 (1057), IV l 1112 (209)

## CCCC(=O)OCC(C)(C)N.Cl [III b, 2-Amino-2-methyl-1-propyl butyrate hydrochloride]
[1]
  MIC: > 62.5 µg/mL
[2]
  MIC: > 62.5 µg/mL
[3]
  MIC: > 62.5 µg/mL
[4]
  MIC: > 62.5 µg/mL
[5]
  MIC: > 62.5 µg/mL
[6]
  MIC: > 62.5 µg/mL
[7]
  MIC: > 62.5 µg/mL
[8]
  MIC: > 62.5 µg/mL
[9]
  solubility: 1070 µg/mL

## CC(=O)OCC(C)(C)N(Cl)Cl [IV a, 2-N,N-Dichloroamino-2-methyl-1-propyl acetate]
[1]
  MIC: 62.5 µg/mL
[2]
  MIC: > 62.5 µg/mL
[3]
  MIC: 62.5 µg/mL
[4]
  MIC: > 62.5 µg/mL
[5]
  MIC: > 62.5 µg/mL
[6]
  MIC: 62.5 µg/mL
[7]
  MIC: > 62.5 µg/mL
[8]
  MIC: > 62.5 µg/mL

## CC(C)(C)C(=O)OCC(C)(C)N(Cl)Cl [IV g, 2-N,N-Dichloroamino-2-methyl-1-propyl 2,2-dimethylproprionate]
[1]
  MIC: 250 µg/mL (≈ 1030 µM)
[2]
  MIC: 250 µg/mL (≈ 1030 µM)
[3]
  MIC: 250 µg/mL (≈ 1030 µM)
[4]
  MIC: > 125 µg/mL
[5]
  MIC: > 125 µg/mL
[6]
  MIC: > 125 µg/mL
[7]
  MIC: > 125 µg/mL
[8]
  MIC: > 125 µg/mL
[10]; Example X, S. epidermidis, pH 4.6, no horse serum, IV c 404 ppm (69 PPMCl+), IV g 489 ppm (143 PPMCl+)
  Sterilization Time: 0.5 min
[10]; Example X, S. epidermidis, pH 7.0, no horse serum, IV c 1886 ppm (323 PPMCl+), IV g 409 ppm (120 PPMCl+)
  Sterilization Time: 2 min
[10]; Example X, S. epidermidis, pH 9.3, no horse serum, IV c 1704 ppm (292 PPMCl+), IV g 319 ppm (94 PPMCl+)
  Sterilization Time: 2 min
[11]; [14]
  Sterilization Time: 0.5 min
[11]; [15]
  Sterilization Time: 3 min
[11]; [16]
  Sterilization Time: 2 min
[12]; [14]
  Sterilization Time: 0.5 min
[12]; [15]
  Sterilization Time: 0.5 min
[12]; [16]
  Sterilization Time: 0.5 min
[13]; [14]
  Sterilization Time: 1 min
[13]; [15]
  Sterilization Time: 2 min
[13]; [16]
  Sterilization Time: 2 min

## CCCCCC(=O)OCC(C)(C)NCl [IV d, 2-N-Chloroamino-2-methyl-1-propyl hexanoate]
[1]
  MIC: > 62.5 µg/mL
[2]
  MIC: > 62.5 µg/mL
[3]
  MIC: > 62.5 µg/mL
[4]
  MIC: > 62.5 µg/mL
[5]
  MIC: > 62.5 µg/mL
[6]
  MIC: > 62.5 µg/mL
[7]
  MIC: > 62.5 µg/mL
[8]
  MIC: > 62.5 µg/mL

## CCCCCC(=O)OCC(C)(C)N(Cl)Cl [IV h, 2-N,N-Dichloroamino-2-methyl-1-propyl hexanoate]
[1]
  MIC: > 62.5 µg/mL
[2]
  MIC: > 62.5 µg/mL
[3]
  MIC: 62.5 µg/mL (≈ 244 µM)
[4]
  MIC: > 62.5 µg/mL
[5]
  MIC: > 62.5 µg/mL
[6]
  MIC: 62.5 µg/mL (≈ 244 µM)
[7]
  MIC: > 62.5 µg/mL
[8]
  MIC: > 62.5 µg/mL

## CC(C)(COC(=O)c1cccnc1)N(Cl)Cl [IV j, 2-N,N-Dichloroamino-2-methyl-1-propyl nicotinate]
[10]; Example Z, S. pidermidis, pH 4.6, absence of horse serum, IV j 79 ppm (21 PPMCl+), IV k 5800 (1057), IV l 1112 (209)
  Sterilization Time: 3 min
[11]; [17]
  Sterilization Time: 1 min
[12]; [17]
  Sterilization Time: 2 min
[13]; [17]
  Sterilization Time: 4 min
